For the assay, the target named is T1, DCAF16 (Homo sapiens, UniProt Q9NXF7).
T1 construct: endogenously expressed DCAF16 in HEK293T cells; endogenous in cells; host or cells: HEK293T
As to the kind of experiment: Competitive ABPP (TMT) of cysteine engagement in endogenous DCAF16. Format: cell-based. The note with it: HEK293T, 1.5 h. How it is done:
HEK293T cells were treated with DMSO (four biological replicates), 2 μM KB02-SLF (three biological replicates) or 20 μM KB02-JQ1 (three biological replicates) for 1.5 h (ten samples in total). Cells were collected, washed once with PBS and lysed in PBS by sonication (40%, 4, 20 pulses). Samples were clarified by centrifugation for 10 min at 8,000 g. Lysate was adjusted to 1.0 mg/mL in 500 μL. Samples were labeled with 100 μM iodoacetamide alkyne (5 μL of 10 mM stock in DMSO) at room temperature for 1 hour, conjugated by CuACC to desthiobiotin azide (10 μL of 5 mM stock in DMSO, final concentration=100 tris(2-carboxyethyl)phosphine hydrochloride (TCEP, 10 μL of 50 mM stock in H2O, final concentration=1 mM), TBTA (30 μL of 1.7 mM stock in 4:1 tBuOH:DMSO, final concentration=100 μM) and CuSO4 (10 μL of 50 mM stock in H2O, final concentration=1 mM). The samples were allowed to react for 1 hour at room temperature. Proteins were precipitated by adding 3.5 mL of H2O, 4 mL of methanol and 1.5 mL of chloroform, followed by centrifugation at 5,000 g for 15 min (4° C.). After aspirating the top layer, the protein pellets with bottom layer were washed with 8 mL cold methanol by centrifugation at 5,000 g for 15 min (4° C.). Protein pellets were resuspended in 90 μL of buffer containing 9 M urea, 10 mM DTT and 50 mM tetramethylammonium bicarbonate (pH 8.5), sonicated (40%, 4, 5 pulses) and heated at 65° C. for 20 min. Samples were cooled to room temperature and alkylated with 50 mM iodoacetamide (10 μL of 500 mM stock in H2O) at 37° C. for 30 minutes. Samples were diluted with 350 μL of 50 mM tetramethylammonium bicarbonate (pH 8.5) and digested with 2 μg trypsin at 37° C. for 4 hours. 40 μL of streptavidin-agarose beads slurry was washed in immunoprecipitation (IP) washing buffer and added to each sample. Beads with peptide samples were rotated for 1 hour at room temperature, filtered off by micro Bio-Spin chromatography column (Bio-Rad) and washed with 1 mL of IP washing buffer (three times), 1 mL of PBS (three times) and 1 mL of H2O. Peptides were eluted by adding 300 μL of 50% acetonitrile with 0.1% of formic acid and dried in vacuum concentrator.
Peptides were resuspended in 100 μL of 30% acetonitrile in 200 mM EPPS (pH 8) and labeled with TMT10plex isobaric reagent following the manufacturer's instructions. 0.15% of hydroxylamine (3 μL of 5% stock in H2O) was added to each sample to quench the reaction (incubate for 15 minutes). After adding 5 μL of formic acid to each sample, 10 peptide samples were combined and dried in vacuum concentrator. […]
The samples were analyzed in Orbitrap Fusion Tribrid mass spectrometer (Thermo Scientific) coupled to UltiMate 3000 HPLC system (Thermo Scientific). […]

2 compounds from US11691984B2, “Compounds and methods for DCAF-mediated protein degradation” (The Scripps Research Institute, priority 2018, dated 2023) can be followed below.

On to `Cc1sc2c(c1C)C(c1ccc(Cl)cc1)=N[C@@H](CC(=O)NCCOCCOCCNC(=O)COc1ccc3c(c1)CCCN3C(=O)CCl)c1nnc(C)n1-2` [KB02-JQ1, (S)-2-((1-(2-chloroacetyl)-1,2,3,4-tetrahydroquinolin-6-yl)oxy)-N-(2-(2-(2-(2-(4-(4-chlorophenyl)-2,3,9-trimethyl-6H-thieno[3,2-f][1,2,4]triazolo[4,3-a][1,4]diazepin-6-yl)acetamido)ethoxy)ethoxy)ethyl)acetamide], for which, under “KB02-JQ1 20 μM”, the “engagement of DCAF16 C119” value is “no evidence of engagement”; the “engagement of DCAF16 peptide (aa 168-184) containing cysteines 173 and 177-179” value was found to be 40%.
Regarding `CCC(C)(C)C(=O)C(=O)N1CCCC[C@H]1C(=O)O[C@H](CCc1ccc(OC)c(OC)c1)c1cccc(NC(=O)CCOCCOCCNC(=O)COc2ccc3c(c2)CCCN3C(=O)CCl)c1` [KB02-SLF, (R)-1-(3-(3-(2-(2-(2-((1-(2-chloroacetyl)-1,2,3,4-tetrahydroquinolin-6-yl)oxy)acetamido)ethoxy)ethoxy)propanamido)phenyl)-3-(3,4-dimethoxyphenyl)propyl (S)-1-(3,3-dimethyl-2-oxopentanoyl)piperidine-2-carboxylate], for the setting “KB02-SLF 2 μM”, the “engagement of DCAF16 C119” value is given as “no evidence of engagement”; the “engagement of DCAF16 peptide (aa 168-184) containing cysteines 173 and 177-179” value is reported as roughly 10%.
